Measured values reported in PubChem BioAssay AID1918999 (Molecular Pharmacology Branch, DTP, NCI, 2023).

Test system: 556581-035-R-J1-PDC complex spheroid growth
Experiment: Anticancer human tumor 556581-035-R-J1-PDC patient-derived ovarian carcinoma cell line growth inhibition [AhR]
Settings: for IC50: curve of first compound; for viability, T/C: stronger effect = lower value; active = viability on the fitted dose curve at most 10% of control; inactive = the rest
Outline: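 Agents were dosed in half-log steps down from roughly clinical Cmax, or from 10 microM where Cmax was unknown, alone and with AhR antagonists. Read-out: percent test/control growth of tumor spheroids containing HUVEC and MSC stromal cells.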

[1] = second compound 0.1 µM, first compound 0.0316 µM
[2] = second compound 0.1 µM, first compound 0.1 µM
[3] = second compound 0.1 µM, first compound 0.316 µM
[4] = second compound 0.1 µM, first compound 1 µM
[5] = second compound 0.1 µM, first compound 3.16 µM
[6] = second compound 0.1 µM, first compound 10 µM
[7] = second compound 0.316 µM, first compound 0.0316 µM
[8] = second compound 0.316 µM, first compound 0.1 µM
[9] = second compound 0.316 µM, first compound 0.316 µM
[10] = second compound 0.316 µM, first compound 1 µM
[11] = second compound 0.316 µM, first compound 3.16 µM
[12] = second compound 0.316 µM, first compound 10 µM
[13] = second compound 1 µM, first compound 0.0316 µM
[14] = second compound 1 µM, first compound 0.1 µM
[15] = second compound 1 µM, first compound 0.316 µM
[16] = second compound 1 µM, first compound 1 µM
[17] = second compound 1 µM, first compound 3.16 µM
[18] = second compound 1 µM, first compound 10 µM
[19] = second compound 3.16 µM, first compound 0.0316 µM
[20] = second compound 3.16 µM, first compound 0.1 µM
[21] = second compound 3.16 µM, first compound 0.316 µM
[22] = second compound 3.16 µM, first compound 1 µM
[23] = second compound 3.16 µM, first compound 3.16 µM
[24] = second compound 3.16 µM, first compound 10 µM
[25] = second compound 10 µM, first compound 0.0316 µM
[26] = second compound 10 µM, first compound 0.1 µM
[27] = second compound 10 µM, first compound 0.316 µM
[28] = second compound 10 µM, first compound 1 µM
[29] = second compound 10 µM, first compound 3.16 µM
[30] = second compound 10 µM, first compound 10 µM
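Throughout, for viability, T/C: compound exposure lasted 7 days; 100% = DMSO vehicle control growth.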

CC(C)c1c(-c2ccccc2)nc2c(C#N)c[nH]n2c1=O + Cc1cncc(-c2nc(NCCc3c[nH]c4ccccc34)c3ncn(C(C)C)c3n2)c1
inactive: viability, T/C [1] 110% | viability, T/C [2] 106% | viability, T/C [3] 102% | viability, T/C [4] 103% | viability, T/C [5] 108% | viability, T/C [6] 88.5% | viability, T/C [7] 106% | viability, T/C [8] 110% | viability, T/C [9] 96.9% | viability, T/C [10] 108% | viability, T/C [11] 95.6% | viability, T/C [12] 96.3% | viability, T/C [13] 97.4% | viability, T/C [14] 107% | viability, T/C [15] 114% | viability, T/C [16] 102% | viability, T/C [17] 91.8% | viability, T/C [18] 102% | viability, T/C [19] 98.6% | viability, T/C [20] 104% | viability, T/C [21] 99.2% | viability, T/C [22] 92.7% | viability, T/C [23] 95.5% | viability, T/C [24] 90.5% | viability, T/C [25] 76.5% | viability, T/C [26] 84% | viability, T/C [27] 90% | viability, T/C [28] 71.1% | viability, T/C [29] 68.2% | viability, T/C [30] 70.7%
> 10 µM: IC50 (second compound 0.1 µM) | IC50 (second compound 0.316 µM) | IC50 (second compound 1 µM) | IC50 (second compound 3.16 µM) | IC50 (second compound 10 µM)

CC1COCCN1c1cc(-c2ccnn2C)c2ccnc(-c3ccn[nH]3)c2n1 (stereo not given) + Cc1cncc(-c2nc(NCCc3c[nH]c4ccccc34)c3ncn(C(C)C)c3n2)c1
0.877 µM: IC50 (second compound 10 µM)
inactive: viability, T/C (second compound 0.1 µM, first compound 0.00316 µM) 99.4% | viability, T/C (second compound 0.1 µM, first compound 0.01 µM) 96.1% | viability, T/C [1] 89.8% | viability, T/C [2] 82.2% | viability, T/C [3] 62.8% | viability, T/C [4] 40.5% | viability, T/C (second compound 0.316 µM, first compound 0.00316 µM) 98.2% | viability, T/C (second compound 0.316 µM, first compound 0.01 µM) 104% | viability, T/C [7] 93.2% | viability, T/C [8] 83% | viability, T/C [9] 55.6% | viability, T/C [10] 41.9% | viability, T/C (second compound 1 µM, first compound 0.00316 µM) 100% | viability, T/C (second compound 1 µM, first compound 0.01 µM) 102% | viability, T/C [13] 101% | viability, T/C [14] 83.8% | viability, T/C [15] 57.4% | viability, T/C [16] 48% | viability, T/C (second compound 3.16 µM, first compound 0.00316 µM) 101% | viability, T/C (second compound 3.16 µM, first compound 0.01 µM) 95.1% | viability, T/C [19] 88.6% | viability, T/C [20] 75.7% | viability, T/C [21] 62.4% | viability, T/C [22] 46.2% | viability, T/C (second compound 10 µM, first compound 0.00316 µM) 77.6% | viability, T/C (second compound 10 µM, first compound 0.01 µM) 71.9% | viability, T/C [25] 71.4% | viability, T/C [26] 64.3% | viability, T/C [27] 57.7% | viability, T/C [28] 49%
0.518 µM: IC50 (second compound 0.316 µM)
0.796 µM: IC50 (second compound 1 µM)
0.621 µM: IC50 (second compound 0.1 µM)
0.76 µM: IC50 (second compound 3.16 µM)

CC1COCCN1c1cc(C2(S(C)(=N)=O)CC2)nc(-c2ccnc3[nH]ccc23)n1 (stereo not given) + Cc1cncc(-c2nc(NCCc3c[nH]c4ccccc34)c3ncn(C(C)C)c3n2)c1
> 10 µM: IC50 (second compound 0.1 µM) | IC50 (second compound 0.316 µM) | IC50 (second compound 1 µM) | IC50 (second compound 3.16 µM) | IC50 (second compound 10 µM)
inactive: viability, T/C [1] 103% | viability, T/C [2] 104% | viability, T/C [3] 92.2% | viability, T/C [4] 93.3% | viability, T/C [5] 73.5% | viability, T/C [6] 67.4% | viability, T/C [7] 99% | viability, T/C [8] 97.9% | viability, T/C [9] 99.4% | viability, T/C [10] 95.4% | viability, T/C [11] 82.5% | viability, T/C [12] 68.9% | viability, T/C [13] 101% | viability, T/C [14] 106% | viability, T/C [15] 102% | viability, T/C [16] 94.7% | viability, T/C [17] 85% | viability, T/C [18] 67.3% | viability, T/C [19] 111% | viability, T/C [20] 103% | viability, T/C [21] 92.2% | viability, T/C [22] 99.2% | viability, T/C [23] 74.2% | viability, T/C [24] 78.2% | viability, T/C [25] 80.4% | viability, T/C [26] 90.1% | viability, T/C [27] 80.7% | viability, T/C [28] 90.9% | viability, T/C [29] 79.5% | viability, T/C [30] 63.8%

COc1ccc([C@@H](O)c2cc(-c3ncnc4cc(N5CCOCC5)ccc34)c(F)cc2Cl)nn1 + Cc1cncc(-c2nc(NCCc3c[nH]c4ccccc34)c3ncn(C(C)C)c3n2)c1
6.93 µM: IC50 (second compound 3.16 µM)
4.2 µM: IC50 (second compound 1 µM)
3.12 µM: IC50 (second compound 0.1 µM)
9.85 µM: IC50 (second compound 10 µM)
inactive: viability, T/C [1] 113% | viability, T/C [2] 114% | viability, T/C [3] 108% | viability, T/C [4] 72.2% | viability, T/C [5] 51.4% | viability, T/C [6] 45.6% | viability, T/C [7] 110% | viability, T/C [8] 105% | viability, T/C [9] 102% | viability, T/C [10] 77.8% | viability, T/C [11] 60.8% | viability, T/C [12] 45.8% | viability, T/C [13] 111% | viability, T/C [14] 112% | viability, T/C [15] 116% | viability, T/C [16] 87.9% | viability, T/C [17] 53.8% | viability, T/C [18] 42.5% | viability, T/C [19] 103% | viability, T/C [20] 113% | viability, T/C [21] 88.5% | viability, T/C [22] 82.6% | viability, T/C [23] 54.2% | viability, T/C [24] 47.8% | viability, T/C [25] 82.2% | viability, T/C [26] 85.7% | viability, T/C [27] 89.1% | viability, T/C [28] 74.8% | viability, T/C [29] 61.5% | viability, T/C [30] 49.5%
7.28 µM: IC50 (second compound 0.316 µM)

O=C(C=Cn1cnc(-c2cc(C(F)(F)F)cc(C(F)(F)F)c2)n1)NNc1cnccn1 + Cc1cncc(-c2nc(NCCc3c[nH]c4ccccc34)c3ncn(C(C)C)c3n2)c1
inactive: viability, T/C (second compound 0.1 µM, first compound 0.00949 µM) 94.2% | viability, T/C (second compound 0.1 µM, first compound 0.03 µM) 99.9% | viability, T/C (second compound 0.1 µM, first compound 0.0949 µM) 95.5% | viability, T/C (second compound 0.1 µM, first compound 0.3 µM) 85.9% | viability, T/C (second compound 0.1 µM, first compound 0.949 µM) 70.8% | viability, T/C (second compound 0.1 µM, first compound 3 µM) 56.3% | viability, T/C (second compound 0.316 µM, first compound 0.00949 µM) 85.5% | viability, T/C (second compound 0.316 µM, first compound 0.03 µM) 96.2% | viability, T/C (second compound 0.316 µM, first compound 0.0949 µM) 74.8% | viability, T/C (second compound 0.316 µM, first compound 0.3 µM) 73.8% | viability, T/C (second compound 0.316 µM, first compound 0.949 µM) 62.6% | viability, T/C (second compound 0.316 µM, first compound 3 µM) 50.1% | viability, T/C (second compound 1 µM, first compound 0.00949 µM) 93.9% | viability, T/C (second compound 1 µM, first compound 0.03 µM) 94.8% | viability, T/C (second compound 1 µM, first compound 0.0949 µM) 87.5% | viability, T/C (second compound 1 µM, first compound 0.3 µM) 78.2% | viability, T/C (second compound 1 µM, first compound 0.949 µM) 65.4% | viability, T/C (second compound 1 µM, first compound 3 µM) 39.4% | viability, T/C (second compound 3.16 µM, first compound 0.00949 µM) 92.8% | viability, T/C (second compound 3.16 µM, first compound 0.03 µM) 97.1% | viability, T/C (second compound 3.16 µM, first compound 0.0949 µM) 95.9% | viability, T/C (second compound 3.16 µM, first compound 0.3 µM) 74.8% | viability, T/C (second compound 3.16 µM, first compound 0.949 µM) 57.3% | viability, T/C (second compound 3.16 µM, first compound 3 µM) 50.4% | viability, T/C (second compound 10 µM, first compound 0.00949 µM) 81.6% | viability, T/C (second compound 10 µM, first compound 0.03 µM) 84.6% | viability, T/C (second compound 10 µM, first compound 0.0949 µM) 73.9% | viability, T/C (second compound 10 µM, first compound 0.3 µM) 72.7% | viability, T/C (second compound 10 µM, first compound 0.949 µM) 64.8% | viability, T/C (second compound 10 µM, first compound 3 µM) 68.9%
> 3 µM: IC50 (second compound 0.1 µM) | IC50 (second compound 0.316 µM) | IC50 (second compound 3.16 µM) | IC50 (second compound 10 µM)
1.86 µM: IC50 (second compound 1 µM)
